≈ marks a conversion by molar mass, not a printed value. Like-named read-outs stand apart in the source and are kept apart here.
Experiments:
[1] = Anti-metabolic effect (MTS) in the replicon cell line; details: human
[2] = Solubility in PBS pH 7.4; details: for solubility compared to sanglifehrin A (5) and cyclosporine A (1) (in words): PBS pH 7.4; for solubility at 4 h: PBS, pH 7.4, aqueous buffer, kinetic from dmso stock
[3] = system: HCV genotype 1b I389luc-ubi-neo/NS3-3'/5.1 replicon in Huh5.2 cells; test: microbe, parasite or virus in culture; assay type: cell-based, Hepatitis C Virus
[4] = pH 7.4
[5] = system: peripheral blood mononuclear cells (PBMC); test: Mixed lymphocyte reaction (MLR) for immunosuppressant activity; assay type: cell-based, human; details: for IC50: Homo sapiens, PBMC, read-out: Human MLR IC50; for immunosuppressive activity (in words): MLR
[6] = system: HIV (pNL4.3-GFP / pNL4.3-BaL-GFP) in CD4+ T-lymphocytes; test: microbe, parasite or virus in culture; assay type: cell-based; details: Human immunodeficiency virus 1, BAL, T-lymphocyte, 48 h, read-out: CD4+ T-lymphocytes EC50
[7] = Cell viability (dye uptake) in the HBV assay; assay type: cell-based; details: human, HepG2 2.2.15 cells; read-out: TC50
Method: Antiviral efficacy against HBV may be tested as follows: HepG2 2.2.15 cells are plated in 96-well microtiter plates. After 16-24 hours the confluent monolayer of HepG2 2.2.15 cells is washed and the medium is replaced with complete medium containing various concentrations of a test compound in triplicate (eg six half-log concentrations). Three days later the culture medium is replaced with fresh medium containing the appropriately diluted test compounds. Six days following the initial administration of the test compound, the cell culture supernatant is collected, treated with pronase and then used in a real-time quantitative TaqMan qPCR assay. The PCR-amplified HBV DNA is detected in real-time by monitoring increases in fluorescence signals that result from the exonucleolytic degradation of a quenched fluorescent probe molecule that hybridizes to the amplified HBV DNA. For each PCR amplification, a standard curve is simultaneously generated using dilutions of purified HBV DNA. Antiviral activity is calculated from the reduction in HBV DNA levels (IC50). A dye uptake assay is then employed to measure cell viability, which is used to calculate toxicity (TC50). The therapeutic index (TI) is calculated as TC50/IC50.

[8] = system: HIV (pNL4.3-GFP / pNL4.3-BaL-GFP) in CD4+ HeLa cells; test: microbe, parasite or virus in culture; assay type: cell-based; details: for EC50: Human immunodeficiency virus 1, BAL, HeLa, 48 h, read-out: HeLa cells EC50; for potency at inhibiting HIV infection compared to cyclosporine A, 1 (in words): four cell types
[9] = target: T1, GST-CypD / Con1 NS5A-His complex (Homo sapiens, UniProt P30405); test: biochemical
T1 sequence (P30405 30-207, one chain of several): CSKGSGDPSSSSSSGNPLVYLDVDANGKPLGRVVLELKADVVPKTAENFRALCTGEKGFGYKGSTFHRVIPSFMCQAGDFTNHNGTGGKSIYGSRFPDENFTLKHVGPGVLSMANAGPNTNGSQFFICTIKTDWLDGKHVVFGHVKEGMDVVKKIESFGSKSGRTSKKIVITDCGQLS

[10] = system: HBV in HepG2 2.2.15 cells; test: HBV antiviral assay (HBV DNA by qPCR); assay type: cell-based, Hepatitis B Virus; details: Hepatitis B virus, HepG2 2.2.15, […], read-out: HBV EC50
[11] = system: HIV (pNL4.3-GFP / pNL4.3-BaL-GFP) in Jurkat cells; test: microbe, parasite or virus in culture; assay type: cell-based; details: Human immunodeficiency virus 1, BAL, 48 h, read-out: T cells EC50
[12] = system: HIV (pNL4.3-GFP / pNL4.3-BaL-GFP) in macrophages; test: microbe, parasite or virus in culture; assay type: cell-based; details: Human immunodeficiency virus 1, BAL, Macrophage, 48 h, read-out: Macrophages EC50
[13] = target: T1, GST-CypD / Con1 NS5A-His complex; test: ELISA analysis of Cyp-NS5A interaction (CypD-NS5A disruption)
[14] = physchem; details: pH 7.4, aqueous buffer, kinetic from dmso stock
[15] = system: Huh5.2 cells; test: Anti-metabolic effect (MTS) in the replicon cell line; details: Huh5.2 cells, MTS, 72 hours
[16] = Hepatitis C virus, Huh-5-2, 72 h

Structure (SMILES) | CC50 at 72 h [1] | solubility compared to sanglifehrin A (5) and cyclosporine A (1) (in words) [2] | solubility at 4 h [2] | Selectivity index (CC50/EC50) [3] | potency in the Huh5.2 replicon assay (in words) [3] | EC50 [3, 16] | EC90 [3, 16] | other results
CON(C)C(=O)/C=C/C=C(\C)[C@@H]1C/C=C/C=C/[C@H](O)[C@H](C)[C@@H](O)[C@@H](CCC(C)=O)C(=O)N[C@@H](C(C)C)C(=O)N[C@@H](Cc2cccc(O)c2)C(=O)N2CCCC(N2)C(=O)O1 (some centres unmarked) [compound 10] | > 100 µM | increased solubility | > 100 µM | >617 | very potent | 0.162 µM | 0.921 µM | 
CCN(CC)C(=O)/C=C/C=C(\C)[C@@H]1C/C=C/C=C/[C@H](O)[C@H](C)[C@@H](O)[C@@H](CCC(C)=O)C(=O)N[C@@H](C(C)C)C(=O)N[C@@H](Cc2cccc(O)c2)C(=O)N2CCCC(N2)C(=O)O1 (some centres unmarked) [compound 13] | > 100 µM | increased solubility | > 100 µM | >490 | very potent | 0.204 µM | 1.2 µM | 
CC(=O)CC[C@H]1C(=O)N[C@@H](C(C)C)C(=O)N[C@@H](Cc2cccc(O)c2)C(=O)N2CCCC(N2)C(=O)O[C@H](/C(C)=C/C=C/C(=O)NC(C)C)C/C=C/C=C/[C@H](O)[C@H](C)[C@H]1O (some centres unmarked) [compound 16] | > 100 µM |  |  | >179 | very potent | 0.56 µM | 4.6 µM | 
CNC(=O)/C=C/C=C(\C)[C@@H]1C/C=C/C=C/[C@H](O)[C@H](C)[C@@H](O)[C@@H](CCC(C)=O)C(=O)N[C@@H](C(C)C)C(=O)N[C@@H](Cc2cccc(O)c2)C(=O)N2CCCC(N2)C(=O)O1 (some centres unmarked) [compound 19] | > 100 µM | increased solubility | > 100 µM | >80 |  | 8 µM | 60.2 µM | 
CC(=O)CC[C@H]1C(=O)N[C@@H](C(C)C)C(=O)N[C@@H](Cc2cccc(O)c2)C(=O)N2CCCC(N2)C(=O)O[C@H](/C(C)=C/C=C/C(=O)N(C)C)C/C=C/C=C/[C@H](O)[C@H](C)[C@H]1O (some centres unmarked) [compound 22] | > 100 µM | increased solubility | > 100 µM | >287 | very potent | 0.349 µM | 6.2 µM | 
C=CCNC(=O)/C=C/C=C(\C)[C@@H]1C/C=C/C=C/[C@H](O)[C@H](C)[C@@H](O)[C@@H](CCC(C)=O)C(=O)N[C@@H](C(C)C)C(=O)N[C@@H](Cc2cccc(O)c2)C(=O)N2CCCC(N2)C(=O)O1 (some centres unmarked) [compound 25] | 48.4 µM | increased solubility |  |  |  | 1.6 µM | 8.5 µM | Solubility [4]: 96 µM (≈ 78.7 µg/mL)
C/C=C/C[C@H]1C(=O)N[C@@H](C(C)C)C(=O)N[C@@H](Cc2cccc(O)c2)C(=O)N2CCCC(N2)C(=O)O[C@H](/C(C)=C/C=C/C(=O)N(C)OC)C/C=C/C=C/[C@H](O)[C@H](C)[C@H]1O (some centres unmarked) [compound 28] | 17.7 µM | increased solubility | 78 µM (≈ 63 µg/mL) | 28.2 | very potent | 0.628 µM | 4 µM | 
CC(=O)CC[C@H]1C(=O)N[C@@H](C(C)C)C(=O)N[C@@H](Cc2cccc(O)c2)C(=O)N2CCCC(N2)C(=O)O[C@H](/C(C)=C/C=C/C(=O)N(CC(C)C)CC(C)C)C/C=C/C=C/[C@H](O)[C@H](C)[C@H]1O (some centres unmarked) [compound 32] | 2.1 µM |  |  |  | very potent | 0.309 µM | 1.1 µM | Solubility [4]: 33 µM (≈ 29.4 µg/mL)
CC(=O)CC[C@H]1C(=O)N[C@@H](C(C)C)C(=O)N[C@@H](Cc2cccc(O)c2)C(=O)N2CCCC(N2)C(=O)O[C@H](/C(C)=C/C=C/C(=O)Nc2ccc(-c3ccccc3)cc2)C/C=C/C=C/[C@H](O)[C@H](C)[C@H]1O (some centres unmarked) [compound 41] | > 100 µM |  |  | >481 | very potent | 0.208 µM | 1.1 µM | 
CC(=O)CC[C@H]1C(=O)N[C@@H](C(C)C)C(=O)N[C@@H](Cc2cccc(O)c2)C(=O)N2CCCC(N2)C(=O)O[C@H](/C(C)=C/C=C/C(=O)N(C)C2CCCCC2)C/C=C/C=C/[C@H](O)[C@H](C)[C@H]1O (some centres unmarked) [compound 45] | 66.4 µM |  |  | 449 | very potent | 0.148 µM | 1.9 µM | 
CC(=O)CC[C@H]1C(=O)N[C@@H](C(C)C)C(=O)N[C@@H](Cc2cccc(O)c2)C(=O)N2CCCC(N2)C(=O)O[C@H](/C(C)=C/C=C/C(=O)Nc2ccccn2)C/C=C/C=C/[C@H](O)[C@H](C)[C@H]1O (some centres unmarked) [compound 48] | 39.7 µM |  |  |  | very potent | 0.167 µM | 0.737 µM | IC50 [5]: 1.06 µM; immunosuppressive activity (in words) [5]: very low levels of immunosuppressive activity; EC50 [6]: 0.14 µM; CC50 at 6 days [7]: > 32 µM; EC50 [8]: 0.25 µM; potency at inhibiting HIV infection compared to cyclosporine A, 1 (in words) [8]: significantly more potent; IC50 [9]: 0.38 µM; EC50 [10]: > 32 µM; EC50 [11]: 0.11 µM; EC50 [12]: 0.21 µM; disruption of the CypD-NS5A complex (in words) [13]: potent disruption
CC(=O)CC[C@H]1C(=O)N[C@@H](C(C)C)C(=O)N[C@@H](Cc2cccc(O)c2)C(=O)N2CCCC(N2)C(=O)O[C@H](/C(C)=C/C=C/C(=O)NC2CCCCC2)C/C=C/C=C/[C@H](O)[C@H](C)[C@H]1O (some centres unmarked) [compound 51] | > 100 µM |  |  | >298 | very potent | 0.336 µM | 4.2 µM | 
CC(=O)CC[C@H]1C(=O)N[C@@H](C(C)C)C(=O)N[C@@H](Cc2cccc(O)c2)C(=O)N2CCCC(N2)C(=O)O[C@H](/C(C)=C/C=C/C(=O)N2CCCCO2)C/C=C/C=C/[C@H](O)[C@H](C)[C@H]1O (some centres unmarked) [compound 55] | > 100 µM |  |  | >800 | very potent | 0.125 µM | 0.691 µM | IC50 [5]: 1.45 µM; immunosuppressive activity (in words) [5]: very low levels of immunosuppressive activity; Solubility [14]: > 100 µM; EC50 [6]: 0.15 µM; EC50 [8]: 0.31 µM; potency at inhibiting HIV infection compared to cyclosporine A, 1 (in words) [8]: significantly more potent; IC50 [9]: 0.23 µM; EC50 [11]: 0.22 µM; EC50 [12]: 0.23 µM; disruption of the CypD-NS5A complex (in words) [13]: potent disruption
CC(=O)CC[C@H]1C(=O)N[C@@H](C(C)C)C(=O)N[C@@H](Cc2cccc(O)c2)C(=O)N2CCC[C@H](N2)C(=O)O[C@H](/C(C)=C/CO)C/C=C/C=C/[C@H](O)[C@H](C)[C@H]1O [hydroxymacrocycle, 6, reference compound] |  |  |  |  | less potent |  |  | CC50 [15]: 83.6 µM; EC50 ([3]; read-out: EC50): 8.4 µM; EC90 ([3]; read-out: EC90): 39.7 µM
